Literature values, collected in patent US8088935B2, “Compounds and methods for the treatment of asthma” (Ironwood Pharmaceuticals, Inc., priority 2003, dated 2012).

Assays:
[1] = toxicity studies

O=C(O)c1cc(=O)c2c(OCC(O)COc3cccc4oc(C(=O)O)cc(=O)c34)cccc2o1 [Cromolyn, disodium cromoglycate]
biologic half-life (in vivo): 46-99 minutes
Peak plasma levels occur (time) (inhaled): ≤ 15 min
acute toxicity [1]: impressively low order of acute toxicity
